From PubChem BioAssay AID2060337 (Molecular Pharmacology Branch, DTP, NCI, 2025)
pIC50: −log10 of the molar value.

Tested on: 832693-133-R-J1-PDC multi-cell spheroids, viability
Assay: Anticancer human tumor 832693-133-R-J1-PDC patient-derived head and neck squamous carcinoma cell line growth inhibition [IpAb]
Conditions: for pIC50: curve of first compound; for viability, T/C: stronger effect = lower value
Outline: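 Spheroids of 60% malignant cells, 25% HUVEC and 15% MSC were exposed to targeted agents combined with ipatasertib or abemaciclib. Doses started at or near clinical Cmax (10 microM when unknown) and fell in half-log steps.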

[1] = second compound 0.1 µM, first compound 0.0316 µM
[2] = second compound 0.1 µM, first compound 0.1 µM
[3] = second compound 0.1 µM, first compound 0.316 µM
[4] = second compound 0.1 µM, first compound 1 µM
[5] = second compound 0.1 µM, first compound 3.16 µM
[6] = second compound 0.1 µM, first compound 10 µM
[7] = second compound 0.316 µM, first compound 0.0316 µM
[8] = second compound 0.316 µM, first compound 0.1 µM
[9] = second compound 0.316 µM, first compound 0.316 µM
[10] = second compound 0.316 µM, first compound 1 µM
[11] = second compound 0.316 µM, first compound 3.16 µM
[12] = second compound 0.316 µM, first compound 10 µM
[13] = second compound 1 µM, first compound 0.0316 µM
[14] = second compound 1 µM, first compound 0.1 µM
[15] = second compound 1 µM, first compound 0.316 µM
[16] = second compound 1 µM, first compound 1 µM
[17] = second compound 1 µM, first compound 3.16 µM
[18] = second compound 1 µM, first compound 10 µM
[19] = second compound 3.16 µM, first compound 0.0316 µM
[20] = second compound 3.16 µM, first compound 0.1 µM
[21] = second compound 3.16 µM, first compound 0.316 µM
[22] = second compound 3.16 µM, first compound 1 µM
[23] = second compound 3.16 µM, first compound 3.16 µM
[24] = second compound 3.16 µM, first compound 10 µM
[25] = second compound 10 µM, first compound 0.0316 µM
[26] = second compound 10 µM, first compound 0.1 µM
[27] = second compound 10 µM, first compound 0.316 µM
[28] = second compound 10 µM, first compound 1 µM
[29] = second compound 10 µM, first compound 3.16 µM
[30] = second compound 10 µM, first compound 10 µM
[31] = second compound 0.1 µM, first compound 0.00949 µM
[32] = second compound 0.1 µM, first compound 0.03 µM
[33] = second compound 0.1 µM, first compound 0.0949 µM
[34] = second compound 0.1 µM, first compound 0.3 µM
[35] = second compound 0.316 µM, first compound 0.00949 µM
[36] = second compound 0.316 µM, first compound 0.03 µM
[37] = second compound 0.316 µM, first compound 0.0949 µM
[38] = second compound 0.316 µM, first compound 0.3 µM
[39] = second compound 1 µM, first compound 0.00949 µM
[40] = second compound 1 µM, first compound 0.03 µM
[41] = second compound 1 µM, first compound 0.0949 µM
[42] = second compound 1 µM, first compound 0.3 µM
[43] = second compound 3.16 µM, first compound 0.00949 µM
[44] = second compound 3.16 µM, first compound 0.03 µM
[45] = second compound 3.16 µM, first compound 0.0949 µM
[46] = second compound 3.16 µM, first compound 0.3 µM
[47] = second compound 10 µM, first compound 0.00949 µM
[48] = second compound 10 µM, first compound 0.03 µM
[49] = second compound 10 µM, first compound 0.0949 µM
[50] = second compound 10 µM, first compound 0.3 µM
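Also: spheroids exposed to the drugs for one week before the viability readout.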
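For viability, T/C in this document: 100% = DMSO vehicle control wells.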

`C=CC(=O)N1CCN(c2nc(=O)n(-c3c(C)ccnc3C(C)C)c3nc(-c4c(O)cccc4F)c(F)cc23)C(C)C1` (stereo not given) + CC(C)NCC(C(=O)N1CCN(c2ncnc3c2C(C)CC3O)CC1)c1ccc(Cl)cc1 gave a pIC50 (second compound 0.1 µM) of less than 5.00, a pIC50 (second compound 0.316 µM) of 5.35 and a pIC50 (second compound 1 µM) of 6.63. The pIC50 (second compound 3.16 µM) was 6.51, the pIC50 (second compound 10 µM) was 5.43 and the viability, T/C [1] was 96.1%. It also gave a viability, T/C [2] of 91.6%, a viability, T/C [3] of 86% and a viability, T/C [4] of 92.2%. The viability, T/C [5] was 104%, the viability, T/C [6] was 77.3% and the viability, T/C [7] was 81.1%. For the same compound, the viability, T/C [8] was 75.3%, the viability, T/C [9] was 70.9% and the viability, T/C [10] was 67.2%. The viability, T/C [11] was 56.6%, the viability, T/C [12] was 36.6% and the viability, T/C [13] was 53.6%. It also gave a viability, T/C [14] of 55%, a viability, T/C [15] of 48.2% and a viability, T/C [16] of 41.8%. For the same compound, the viability, T/C [17] was 34.7%, the viability, T/C [18] was 18.8% and the viability, T/C [19] was 55.7%. The viability, T/C [20] was 52.4%, the viability, T/C [21] was 49.1% and the viability, T/C [22] was 43%. The viability, T/C [23] was 36.8%, the viability, T/C [24] was 17% and the viability, T/C [25] was 53.4%. The viability, T/C [26] was 69%, the viability, T/C [27] was 65.8% and the viability, T/C [28] was 57.3%. The viability, T/C [29] was 56% and the viability, T/C [30] was 18.4%.
`CC(=O)c1c(C)c2cnc(Nc3ccc(N4CCNCC4)cn3)nc2n(C2CCCC2)c1=O` + CC(C)NCC(C(=O)N1CCN(c2ncnc3c2C(C)CC3O)CC1)c1ccc(Cl)cc1 showed a pIC50 (second compound 0.1 µM) of 7.16, a pIC50 (second compound 0.316 µM) of 7.93 and a pIC50 (second compound 1 µM) of 8.58. It also gave a pIC50 (second compound 3.16 µM) of 8.77, a pIC50 (second compound 10 µM) of 8.55 and a viability, T/C (second compound 0.1 µM, first compound 0.000949 µM) of 90.5%. The viability, T/C (second compound 0.1 µM, first compound 0.003 µM) was 75%, the viability, T/C [31] was 66.7% and the viability, T/C [32] was 53.4%. For the same compound, the viability, T/C [33] was 47.8%, the viability, T/C [34] was 44.7% and the viability, T/C (second compound 0.316 µM, first compound 0.000949 µM) was 64.8%. The viability, T/C (second compound 0.316 µM, first compound 0.003 µM) was 62.6%, the viability, T/C [35] was 51.2% and the viability, T/C [36] was 41.5%. The viability, T/C [37] was 31.4%, the viability, T/C [38] was 34.1% and the viability, T/C (second compound 1 µM, first compound 0.000949 µM) was 56.9%. The viability, T/C (second compound 1 µM, first compound 0.003 µM) was 49.6%, the viability, T/C [39] was 36.6% and the viability, T/C [40] was 33.3%. It also gave a viability, T/C [41] of 27.8%, a viability, T/C [42] of 29.6% and a viability, T/C (second compound 3.16 µM, first compound 0.000949 µM) of 56.2%. It also gave a viability, T/C (second compound 3.16 µM, first compound 0.003 µM) of 45.1%, a viability, T/C [43] of 31.6% and a viability, T/C [44] of 34.4%. The viability, T/C [45] was 23.5%, the viability, T/C [46] was 20.8% and the viability, T/C (second compound 10 µM, first compound 0.000949 µM) was 61%. The viability, T/C (second compound 10 µM, first compound 0.003 µM) was 50.5%, the viability, T/C [47] was 37.8% and the viability, T/C [48] was 30.5%. It also gave a viability, T/C [49] of 26.9% and a viability, T/C [50] of 21%.
Work on `CC(C)(C)c1cnc(CSc2cnc(NC(=O)C3CCNCC3)s2)o1` + CC(C)NCC(C(=O)N1CCN(c2ncnc3c2C(C)CC3O)CC1)c1ccc(Cl)cc1 yielded a pIC50 (second compound 0.1 µM) of 6.66, a pIC50 (second compound 0.316 µM) of 6.72 and a pIC50 (second compound 1 µM) of 6.86. For the same compound, the pIC50 (second compound 3.16 µM) was 6.88, the pIC50 (second compound 10 µM) was 6.80 and the viability, T/C [31] was 101%. For the same compound, the viability, T/C [32] was 122%, the viability, T/C [33] was 146% and the viability, T/C [34] was 22.2%. It also gave a viability, T/C (second compound 0.1 µM, first compound 0.949 µM) of 1.14%, a viability, T/C (second compound 0.1 µM, first compound 3 µM) of 1.67% and a viability, T/C [35] of 92.5%. The viability, T/C [36] was 94.2%, the viability, T/C [37] was 113% and the viability, T/C [38] was 16.5%. The viability, T/C (second compound 0.316 µM, first compound 0.949 µM) was 0.85%, the viability, T/C (second compound 0.316 µM, first compound 3 µM) was 1.58% and the viability, T/C [39] was 67.7%. The viability, T/C [40] was 70.7%, the viability, T/C [41] was 75.6% and the viability, T/C [42] was 4.32%. The viability, T/C (second compound 1 µM, first compound 0.949 µM) was 1.17%, the viability, T/C (second compound 1 µM, first compound 3 µM) was 1.18% and the viability, T/C [43] was 60%. It also gave a viability, T/C [44] of 68%, a viability, T/C [45] of 81.9% and a viability, T/C [46] of 1.46%. The viability, T/C (second compound 3.16 µM, first compound 0.949 µM) was 1.05%, the viability, T/C (second compound 3.16 µM, first compound 3 µM) was 1.4% and the viability, T/C [47] was 75%. For the same compound, the viability, T/C [48] was 83.4%, the viability, T/C [49] was 108% and the viability, T/C [50] was 0.9%. It also gave a viability, T/C (second compound 10 µM, first compound 0.949 µM) of 1.13% and a viability, T/C (second compound 10 µM, first compound 3 µM) of 1.37%.
With `Cn1nccc1Nc1nccc(-c2ccn(C(CO)c3ccc(Cl)c(F)c3)c(=O)c2)n1` (stereo not given) + CC(C)NCC(C(=O)N1CCN(c2ncnc3c2C(C)CC3O)CC1)c1ccc(Cl)cc1 the pIC50 (second compound 0.1 µM) was 6.42, the pIC50 (second compound 0.316 µM) was 7.06 and the pIC50 (second compound 1 µM) was 7.43. The pIC50 (second compound 3.16 µM) was 7.33, the pIC50 (second compound 10 µM) was 6.49 and the viability, T/C [1] was 90.9%. For the same compound, the viability, T/C [2] was 64.3%, the viability, T/C [3] was 55.9% and the viability, T/C [4] was 41.2%. For the same compound, the viability, T/C [5] was 23.1%, the viability, T/C [6] was 21.5% and the viability, T/C [7] was 60.1%. For the same compound, the viability, T/C [8] was 50%, the viability, T/C [9] was 35.2% and the viability, T/C [10] was 27.8%. It also gave a viability, T/C [11] of 19.7%, a viability, T/C [12] of 11.2% and a viability, T/C [13] of 50.7%. For the same compound, the viability, T/C [14] was 43.2%, the viability, T/C [15] was 26.6% and the viability, T/C [16] was 20.9%. It also gave a viability, T/C [17] of 14%, a viability, T/C [18] of 7.18% and a viability, T/C [19] of 51.5%. For the same compound, the viability, T/C [20] was 47.3%, the viability, T/C [21] was 30.6% and the viability, T/C [22] was 19.9%. For the same compound, the viability, T/C [23] was 12.6%, the viability, T/C [24] was 8.87% and the viability, T/C [25] was 56.3%. It also gave a viability, T/C [26] of 59.6%, a viability, T/C [27] of 50.9% and a viability, T/C [28] of 28.7%. For the same compound, the viability, T/C [29] was 17.9% and the viability, T/C [30] was 10.5%.
